Assay results reported in US20250002954A1, “Novel Compound, Use Thereof, and Method for Producing Same, and Compound-Containing Composition, Method for Producing 4-Trehalosamine, and Microorganism” (Microbial Chemistry Research Foundation, priority 2021, published 2025).

Columns and labels:
[1] = Starch aging inhibiting effect, enzyme assay 1 and 2 (β-amylase degradation of corn starch gel)
Experimental: After the individual test samples were mixed into corn starch gel and left to stand at low temperature for 96 hours, the aging level was evaluated via a degradation experiment using β-amylase. The method described below is an evaluation scheme that is an improvement over the BAP method (K. Kainuma, et al, Journal of the Japanese Society of Starch Science 1981, 28, 235.) and only uses β-amylase.
The 4-trehalosamine (4TA) obtained in production example 10, and trehalose (TRH), sucrose (SCR), and glycerol (hereinafter, sometimes referred to as “GOL”) were each dissolved in water to a final concentration of 10% (w/w), thus preparing aqueous solutions. […]
Quantification (absorbance measurement) of enzyme reaction and sugar were performed for the 24-hour, the 48-hour, or the 96-hour sample in a similar manner to the quantification (absorbance measurement) of enzyme reaction and sugar for the 0-hour sample except that the measurement sample was changed to the 24-hour sample, the 48-hour sample, or the 96-hour sample in the quantification (absorbance measurement) of enzyme reaction and sugar for the 0-hour sample. […]

[2] = Starch aging inhibiting effect, enzyme assay 3 (potato starch gel); details: final concentration 10% or 15% (w/w), 48 and 96 hours
Experimental: Starch aging inhibiting effect was determined in a similar manner to the <Enzyme assay 1> except that the “—Preparation of measurement samples—” and “—Determination of starch aging inhibiting effect—” in the <Enzyme assay 1> were changed to the methods below.
The 4-trehalosamine (4TA) obtained in production example 10, and trehalose (TRH), sucrose (SCR), and glycerol (GOL) were each dissolved in water to a final concentration of 10% (w/w) or 15% (w/w), thus preparing aqueous solutions. Into each of the aqueous solutions containing the different sugars or water as control, potato starch (manufactured by Yoshida Pharmaceutical Company Limited) was mixed to a final concentration of 15% (w/w) and suspended uniformly, and the suspension was aliquoted in 33.3 μL volumes to three tubes. […]
Starch aging inhibiting effect was determined in a similar manner to the “—Determination of starch aging inhibiting effect—” of the <Enzyme assay 1> except that measurement of absorbance at 660 nm was changed to measurement of absorbance at 620 nm in the “—Determination of starch aging inhibiting effect—” of the <Enzyme assay 1>, and that quantification (absorbance measurement) of enzyme reaction and sugar was performed for the 0-hour, 48-hour, and 96-hour samples in the quantification (absorbance measurement) of enzyme reaction and sugar. […]

[3] = Starch aging inhibiting effect, enzyme assay 4 (rice flour gel); details: final concentration 10% or 15% (w/w), 48 and 96 hours
Experimental: Starch aging inhibiting effect was determined in a similar manner to the <Enzyme assay 3> except that potato starch was changed to rice flour (manufactured by OSAWA JAPAN) in the “—Preparation of measurement samples—” of the <Enzyme assay 3>. The results for the 10% (w/w) final concentration of the different sugars are shown in FIG. 15G, and the results for the 15% (w/w) final concentration of the different sugars are shown in FIG. 15H.

[4] = pH buffer effect (pH change on addition of HCl or NaOH); format: physicochemical
Experimental: Using the purified product of 4-trehalosamine obtained in the <Purification process> of production example 10, the functionality of 4-trehalosamine as buffer reagent was determined in the following manner.
A change in pH while 50 μL to 100 μL of 1 M hydrochloric acid (HCl) or 1 M sodium hydroxide (NaOH) was added to 50 mL of aqueous solution of 10 mM 4-trehalosamine (production example 10), 50 mL of aqueous solution of 10 mM trehalose, 50 mL of 10 mM tris, 50 mL of aqueous solution of 10 mM MES (2-(N-morpholino) ethanesulfonic acid), or 50 mL of aqueous solution of 10 mM HEPES (4-(2-hydroxyethyl)-1-piperazinylethane sulfonic acid) was measured with a pH meter (LAQUA F-51, manufactured by HORIBA, Ltd.).

## N[C@H]1[C@H](O)[C@@H](O)[C@@H](O[C@H]2O[C@H](CO)[C@@H](O)[C@H](O)[C@H]2O)O[C@@H]1CO [4-trehalosamine]
[1]; final concentration 5% to 15%, 96 hours
  β-amylase degradation rate (starch aging inhibiting effect): maintained β-amylase degradation rate at 96 hours significantly high compared to the other gels
[1]; test sample final concentration 10% (w/w), 6° C., 24 to 96 hours
  rate of degradation by β-amylase (starch aging inhibiting effect): significantly high rate of degradation by β-amylase at and after 24 hours compared to the other gels
[2]
  rate of degradation by β-amylase (starch aging inhibiting effect): significantly high rate of degradation by β-amylase at and after 48 hours compared to the other gels
[3]
  rate of degradation by β-amylase (starch aging inhibiting effect): significantly high rate of degradation by β-amylase at and after 48 hours compared to the other gels
[4]; 10 mM aqueous solution, 1 M HCl or 1 M NaOH added
  pH buffer effect: strong pH buffer effect comparable that of tris
[4]; aqueous solution, estimated from titration
  pKa: 6.99
